Source: patent publication US20240158446A1, “CYCLIC COMPOUND HAVING SELECTIVE INHIBITORY ACTION ON KRAS OVER HRAS AND NRAS” (CHUGAI SEIYAKU KABUSHIKI KAISHA, priority 2021, published 2024)

Legend:
[1] = target: GDP-bound KRAS wild-type protein (Homo sapiens, UniProt P01116); assay: Binding to KRAS by surface plasmon resonance (SPR), Single Cycle Kinetics; conditions: SPR, Single Cycle Kinetics, GDP-bound KRAS wild-type protein; read-out: KRAS KD
[2] = target: GDP-bound NRAS wild-type protein (Homo sapiens, UniProt P01111); assay: Binding to NRAS by surface plasmon resonance (SPR), Single Cycle Kinetics; conditions: SPR, GDP-bound NRAS wild-type protein vs GDP-bound KRAS wild-type protein
GDP-bound NRAS wild-type protein, sequence (P01111 whole entry): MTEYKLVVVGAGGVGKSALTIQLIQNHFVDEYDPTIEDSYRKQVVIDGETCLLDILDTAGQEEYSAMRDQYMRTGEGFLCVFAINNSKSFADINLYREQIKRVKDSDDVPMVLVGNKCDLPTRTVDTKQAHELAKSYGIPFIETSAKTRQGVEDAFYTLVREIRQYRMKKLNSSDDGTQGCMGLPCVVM

[3] = target: GDP-bound HRAS wild-type protein (Homo sapiens, UniProt P01112); assay: Binding to HRAS by surface plasmon resonance (SPR), Single Cycle Kinetics; conditions: SPR, GDP-bound HRAS wild-type protein vs GDP-bound KRAS wild-type protein
GDP-bound HRAS wild-type protein, sequence (P01112 whole entry): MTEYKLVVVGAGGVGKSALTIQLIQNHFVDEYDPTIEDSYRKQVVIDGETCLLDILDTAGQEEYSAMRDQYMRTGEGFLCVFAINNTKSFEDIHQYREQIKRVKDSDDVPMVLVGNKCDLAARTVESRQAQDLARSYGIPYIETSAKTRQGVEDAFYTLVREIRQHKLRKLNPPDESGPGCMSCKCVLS

GDP-bound KRAS wild-type protein, sequence (P01116 whole entry): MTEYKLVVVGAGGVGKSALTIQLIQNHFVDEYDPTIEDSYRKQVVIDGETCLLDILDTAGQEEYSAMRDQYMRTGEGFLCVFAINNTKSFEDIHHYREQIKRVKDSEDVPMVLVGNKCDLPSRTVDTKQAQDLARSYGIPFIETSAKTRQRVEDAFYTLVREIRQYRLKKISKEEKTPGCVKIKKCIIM

Row | Structure (SMILES) | Kd [1] | NRAS/KRAS (ratio of KD value for NRAS to KD value for KRAS) [2] | HRAS/KRAS (ratio of KD value for HRAS to KD value for KRAS) [3]
1 | CCO[C@@H]1C[C@H]2C(=O)NC3(CC(C)(C)C3)C(=O)N(C)[C@@H](C(CC)CC)C(=O)N(C)[C@H](C(=O)N(C)C)CC(=O)N(C)[C@H]3CCCCCc4ccc(cc4)C[C@@H](C(=O)N(C)CC(=O)N[C@@H](CCc4ccc(C(F)(F)F)c(OC)c4)C(=O)N2C1)N1CC/C=C\C[C@@H](C1=O)N(C)C(=O)CN(C)C(=O)[C@H]([C@@H](C)CC)NC3=O [PP3035] | 0.092 nM | AA (a compound having 20 or more is denoted as AA) | A (a compound having 10 or more and less than 20 is denoted as A)
2 | CCO[C@@H]1C[C@H]2C(=O)NC3(CC(C)(C)C3)C(=O)N(C)[C@@H](C3CCCC3)C(=O)N(C)[C@H](C(=O)N3CCCCC3)CC(=O)N(C)[C@H]3CCCCCc4ccc(cc4)C[C@@H](C(=O)N(C)CC(=O)N[C@@H](CCc4ccc(C(F)(F)F)c(OC)c4)C(=O)N2C1)N1CC/C=C\C[C@@H](C1=O)N(C)C(=O)CN(C)C(=O)[C@H]([C@@H](C)CC)NC3=O [PP3036, (1S,7S,11R,13S,19S,22S,26S,29S,35S,37Z)-19-cyclopentyl-11-ethoxy-7-[2-[3-methoxy-4-(trifluoromethyl)phenyl]ethyl]-3,3′,3′,18,21,25,31,34-octamethyl-29-[(1S)-1-methylpropyl]-22-(piperidine-1-carbonyl)spiro[3,6,9,15,18,21,25,28,31,34,41-undecazapentacyclo[24.15.10.2^43,46.1^35,41.0^9,13]tetrapentaconta-37,43(53),44,46(52)-tetraene-16,1′-cyclobutane]-2,5,8,14,17,20,24,27,30,33,54-undecone] | 0.17 nM | A (a compound having 10 or more and less than 20 is denoted as A) | B (a compound having 3 or more and less than 10 is denoted as B)
3 | CCO[C@@H]1C[C@H]2C(=O)NC3(CC(C)(C)C3)C(=O)N(C)[C@@H](C3CCCC3)C(=O)N(C)[C@H](C(=O)N3CCCC3)CC(=O)N(C)[C@H]3CCCCCc4ccc(cc4)C[C@@H](C(=O)N(C)CC(=O)N[C@@H](CCc4ccc(C(F)(F)F)c(OC)c4)C(=O)N2C1)N1CC/C=C\C[C@@H](C1=O)N(C)C(=O)CN(C)C(=O)[C@H]([C@@H](C)CC)NC3=O [PP3037, (1S,7S,11R,13S,19S,22S,26S,29S,35S,37Z)-19-cyclopentyl-11-ethoxy-7-[2-[3-methoxy-4-(trifluoromethyl)phenyl]ethyl]-3,3′,3′,18,21,25,31,34-octamethyl-29-[(1S)-1-methylpropyl]-22-(pyrrolidine-1-carbonyl)spiro[3,6,9,15,18,21,25,28,31,34,41-undecazapentacyclo[24.15.10.2^43,46.1^35,41.0^9,13]tetrapentaconta-37,43(53),44,46(52)-tetraene-16,1′-cyclobutane]-2,5,8,14,17,20,24,27,30,33,54-undecone] | 0.11 nM | A (a compound having 10 or more and less than 20 is denoted as A) | B (a compound having 3 or more and less than 10 is denoted as B)
4 | CCCO[C@@H]1C[C@H]2C(=O)NC3(CC(C)(C)C3)C(=O)N(C)[C@@H](C(CC)CC)C(=O)N(C)[C@H](C(=O)N(C)C)CC(=O)N(C)[C@H]3CCCCc4ccc(cc4)C[C@@H](C(=O)N(C)CC(=O)N[C@@H](CCc4ccc(C(F)(F)F)c(OC)c4)C(=O)N2C1)N1CC/C=C\C[C@@H](C1=O)N(C)C(=O)CN(C)C(=O)[C@H]([C@@H](C)CC)NC3=O [PP3038] | 0.15 nM | A (a compound having 10 or more and less than 20 is denoted as A) | A (a compound having 10 or more and less than 20 is denoted as A)
5 | CCO[C@@H]1C[C@H]2C(=O)NC3(CCC3)C(=O)N(C)[C@@H](C(CC)CC)C(=O)N(C)[C@H](C(=O)N3CCCC3)CC(=O)N(C)[C@H]3CCC/C=C/c4ccc(cc4)C[C@@H](C(=O)N(C)CC(=O)N[C@@H](CCc4ccc(Cl)c(Cl)c4)C(=O)N2C1)N1CC/C=C\C[C@@H](C1=O)N(C)C(=O)CN(C1CC1)C(=O)[C@H]([C@@H](C)CC)NC3=O [PP3040] | 0.29 nM | AA (a compound having 20 or more is denoted as AA) | A (a compound having 10 or more and less than 20 is denoted as A)
6 | CCO[C@@H]1C[C@H]2C(=O)NC3(CC(C)(C)C3)C(=O)N(C)[C@@H](C(CC)CC)C(=O)N(C)[C@H](C(=O)N(C)C)CC(=O)N(C)[C@H]3CCCC/C=C/c4ccc(cc4)C[C@@H](C(=O)N(C)CC(=O)N[C@@H](CCc4ccc(Cl)c(Cl)c4)C(=O)N2C1)N1CC/C=C\C[C@@H](C1=O)N(C)C(=O)CN(C)C(=O)[C@H]([C@@H](C)CC)NC3=O [PP3045] | 0.13 nM | AA (a compound having 20 or more is denoted as AA) | A (a compound having 10 or more and less than 20 is denoted as A)
7 | CCO[C@@H]1C[C@H]2C(=O)NC3(CCC3)C(=O)N(C)[C@@H](C(CC)CC)C(=O)N(C)[C@H](C(=O)N3CCCCC3)CC(=O)N(C)[C@H]3CCCC/C=C/c4ccc(cc4)C[C@@H](C(=O)N(C)CC(=O)N[C@@H](CCc4ccc(Cl)c(Cl)c4)C(=O)N2C1)N1CC/C=C\C[C@@H](C1=O)N(C)C(=O)CN(C)C(=O)[C@H]([C@@H](C)CC)NC3=O [PP3046] | 0.39 nM | AA (a compound having 20 or more is denoted as AA) | A (a compound having 10 or more and less than 20 is denoted as A)
8 | CCO[C@@H]1C[C@H]2C(=O)NC3(CCC3)C(=O)N(C)[C@@H](C(CC)CC)C(=O)N(C)[C@H](C(=O)N3CCCC3)CC(=O)N(C)[C@H]3CCCC/C=C/c4ccc(cc4)C[C@@H](C(=O)N(C)CC(=O)N[C@@H](CCc4ccc(Cl)c(Cl)c4)C(=O)N2C1)N1CC/C=C\C[C@@H](C1=O)N(C)C(=O)CN(C)C(=O)[C@H]([C@@H](C)CC)NC3=O [PP3047, (1S,7S,11R,13S,19S,22S,26S,29S,35S,37Z,47E)-7-[2-(3,4-dichlorophenyl)ethyl]-11-ethoxy-19-(1-ethylpropyl)-3,18,21,25,31,34-hexamethyl-29-[(1S)-1-methylpropyl]-22-(pyrrolidine-1-carbonyl)spiro[3,6,9,15,18,21,25,28,31,34,41-undecazapentacyclo[24.15.11.2^43,46.1^35,41.0^9,13]pentapentaconta-37,43(54),44,46(53),47-pentaene-16,1′-cyclobutane]-2,5,8,14,17,20,24,27,30,33,55-undecone] | 0.18 nM | AA (a compound having 20 or more is denoted as AA) | A (a compound having 10 or more and less than 20 is denoted as A)
9 | CCO[C@@H]1C[C@H]2C(=O)NC3(CC(C)(C)C3)C(=O)N(C)[C@@H](C(CC)CC)C(=O)N(C)[C@H](C(=O)N(C)C)CC(=O)N(C)[C@H]3CCCCC/C=C/c4ccc(cc4)C[C@@H](C(=O)N(C)CC(=O)N[C@@H](CCc4cc(F)c(C(F)(F)F)c(F)c4)C(=O)N2C1)N1CC/C=C\C[C@@H](C1=O)N(C)C(=O)CN(C)C(=O)[C@H]([C@@H](C)CC)NC3=O [PP3048] | 0.11 nM | A (a compound having 10 or more and less than 20 is denoted as A) | A (a compound having 10 or more and less than 20 is denoted as A)
10 | CCO[C@@H]1C[C@H]2C(=O)NC3(CC(C)(C)C3)C(=O)N(C)[C@@H](C(CC)CC)C(=O)N(C)[C@H](C(=O)N(C)C)CC(=O)N(C)[C@H]3CCCCC/C=C/c4ccc(cc4)C[C@@H](C(=O)N(C)CC(=O)N[C@@H](CCc4ccc(Cl)c(Cl)c4)C(=O)N2C1)N1CC/C=C\C[C@@H](C1=O)N(C)C(=O)CN(C)C(=O)[C@H]([C@@H](C)CC)NC3=O [PP3050] | 0.29 nM | AA (a compound having 20 or more is denoted as AA) | A (a compound having 10 or more and less than 20 is denoted as A)
11 | CCO[C@@H]1C[C@H]2C(=O)NC3(CCC3)C(=O)N(C)[C@@H](C(CC)CC)C(=O)N(C)[C@H](C(=O)N3CCCC3)CC(=O)N(C)[C@H]3CCCCC/C=C/c4ccc(cc4)C[C@@H](C(=O)N(C)CC(=O)N[C@@H](CCc4ccc(Cl)c(Cl)c4)C(=O)N2C1)N1CC/C=C\C[C@@H](C1=O)N(C)C(=O)CN(C)C(=O)[C@H]([C@@H](C)CC)NC3=O [PP3052] | 0.26 nM | AA (a compound having 20 or more is denoted as AA) | A (a compound having 10 or more and less than 20 is denoted as A)
12 | CC[C@H](C)[C@@H]1NC(=O)[C@@H]2CCC/C=C/c3ccc(cc3)C[C@@H](C(=O)N(C)CC(=O)N[C@@H](CCc3ccc(Cl)c(Cl)c3)C(=O)N3C[C@H](OC4CCC4)C[C@H]3C(=O)NC3(CC(C)(C)C3)C(=O)N(C)[C@@H](C3CCCC3)C(=O)N(C)[C@H](C(=O)N3CCCC3)CC(=O)N2C)N2CC/C=C\C[C@@H](C2=O)N(C)C(=O)CN(C)C1=O [PP3053] | 0.16 nM | A (a compound having 10 or more and less than 20 is denoted as A) | A (a compound having 10 or more and less than 20 is denoted as A)
13 | CC[C@H](C)[C@@H]1NC(=O)[C@@H]2CCC/C=C/c3ccc(cc3)C[C@@H](C(=O)N(C)CC(=O)N[C@@H](CCc3ccc(Cl)c(Cl)c3)C(=O)N3C[C@H](OC4CCCC4)C[C@H]3C(=O)NC3(CC(C)(C)C3)C(=O)N(C)[C@@H](C3CCCC3)C(=O)N(C)[C@H](C(=O)N3CCCC3)CC(=O)N2C)N2CC/C=C\C[C@@H](C2=O)N(C)C(=O)CN(C)C1=O [PP3054] | 0.27 nM | A (a compound having 10 or more and less than 20 is denoted as A) | A (a compound having 10 or more and less than 20 is denoted as A)
